Reference: patent publication US8465783B2, “Production of potassium magnesium citrate and its applications” (Gadot Biochemical Industries Ltd., priority 2008, dated 2013)

What was measured:
Assay type in all cases: physicochemical
[1] = Magnesium retention in soy milk on standing (Mg content in upper layer); conditions: for Mg content: 1 liter, after addition during agitation (initial); for Mg content in upper layer: after retention of two days without agitation
Method: 3 g of material obtained in Example 1 were added to 1 liter of Soy milk during agitation.
3 g of material obtained in Example 2 were added to 1 liter of Soy milk during agitation.
Potassium magnesium citrate was prepared according to U.S. Pat. No. 4,985,593. 5.6 g Of the prepared material were added to 1 liter of soy milk and the samples stored refrigerated.
2.2 g of Tri magnesium citrate nona hydrate were added to 1 liter of soy milk during the agitation.
2.2 g of Tri magnesium citrate nona hydrate and 0.2 g of Kappa Carragenan were added to 1 liter of soy milk during the agitation.
2.2 g of Tri magnesium citrate nona hydrate and 2.2 g of tri potassium citrate were added to 1 liter of soy milk during the agitation.

[2] = Long-term magnesium retention in UHT-treated soy milk, stored refrigerated (Mg content in upper level)
Method: 120 g of material obtained in Example 1 were added to 40 liters of soy milk, after agitation the mixture passed the well known (in the art) UHT treatment and samples were collected and stored refrigerated.

[3] = Magnesium retention in cow milk on standing (Mg content in upper layer)
Method: 3 g of material obtained in Example 1 were added to 1 liter of cow milk during agitation.

For `O=C([O-])CC(O)(CC(=O)[O-])C(=O)[O-].O=C([O-])CC(O)(CC(=O)[O-])C(=O)[O-].[K+].[K+].[K+].[K+].[Mg+2]` [Potassium magnesium citrate], the “initial concentration of Mg” value ([1]; 5.6 g per 1 liter) was 373 mg/L and the “Mg content in the upper level” value ([1]; stored refrigerated, after 48 hours of retention) was 372 mg/L.

For `O.O.O.O.O.O.O.O.O.O=C([O-])CC(O)(CC(=O)[O-])C(=O)[O-].O=C([O-])CC(O)(CC(=O)[O-])C(=O)[O-].[Mg+2].[Mg+2].[Mg+2]` [Tri magnesium citrate nona hydrate], the Mg content [1] was 475 mg/L, the “Mg content in upper layer” value [1] was 307 mg/L and the “Magnesium sediment during two days” value ([1]; two days without agitation) was 35 percents.

For Magnesium Potassium Citrate [Example 1], the “Mg content in the upper level” value ([2]; after 1 week) was 471 mg/L, the “Mg content in the upper level” value ([2]; after 2 weeks) was 470 mg/L and the “Mg content in the upper level” value ([2]; after 3 weeks) was 471 mg/L. For the same molecule, the “Mg content in the upper level” value ([2]; after 4 weeks) was 470 mg/L, the “Mg content in the upper level” value ([2]; after 5 weeks) was 462 mg/L and the “Mg content in the upper level” value ([2]; after 6 weeks) was 468 mg/L. The “Mg content in the upper level” value ([2]; after 7 weeks) was 470 mg/L, the “Mg content in the upper level” value ([2]; after 8 weeks) was 468 mg/L and the “Mg content in the upper level” value ([2]; after 9 weeks) was 467 mg/L. For the same molecule, the “Mg content in the upper level” value ([2]; after 10 weeks) was 465 mg/L, the “Mg content in the upper level” value ([2]; after 11 weeks) was 471 mg/L and the “Mg content in the upper level” value ([2]; after 12 weeks) was 465 mg/L. For the same molecule, the “Mg content in the upper level” value ([2]; after 13 weeks) was 466 mg/L, the “Mg content in the upper level” value ([2]; initial) was 468 mg/L and the Mg content [1] was 445 mg/L. For the same molecule, the “Mg content in upper layer” value [1] was 444 mg/L, the Mg content ([3]; 1 liter, after addition during agitation (initial)) was 297 mg/L and the “Mg content in upper layer” value ([3]; after retention of two days without agitation) was 289 mg/L.

With Magnesium Potassium Citrate [Example 2] the Mg content [1] was 547 mg/L and the “Mg content in upper layer” value [1] was 545 mg/L.
